Measurements: patent publication US5914319A, “Antithrombotic agents” (Eli Lilly and Company, priority 1995, dated 1999)
Where a name gives a salt, the structure may show the parent alone.

What was measured:
Type in all cases: biochemical
[1] = tested on: Human plasma; test: Human plasma anticoagulation, thrombin time (TT); settings: concentration required to double the thrombin time, linear extrapolation
Experimental: (§1) Dog plasma and rat plasma is obtained from conscious mixed-breed hounds (either sex, Hazelton-LRE, Kalamazoo, Mich., U.S.A.) or from anesthetized male Sprague-Dawley rats (Harlan Sprague-Dawley, Inc., Indianapolis, Ind., U.S.A.) by venipuncture into 3.8 percent citrate. Fibrinogen is prepared from in-date ACD human blood as the fraction I-2 according to previous procedures and specifications. […] Human fibrinogen is also purchased as 98 percent pure/plasmin free from American Diagnostica, Greenwich, Conn. Coagulation reagents ACTIN, Thromboplastin, and Human plasma are from Baxter Healthcare Corp., Dade Division, Miami, Fla. Bovine thrombin from Parke-Davis ([…], Mich.) is used for coagulation assays in plasma.
(§2) Coagulation assay procedures are as previously described. […] A CoAScreener coagulation instrument (American LABor, Inc.) is used for all coagulation assay measurements. The prothrombin time (PT) is measured by adding 0.05 mL saline and 0.05 mL Thromboplastin-C reagent to 0.05 mL test plasma. The activated partial thromboplastin time (APTT) is measured by incubation of 0.05 mL test plasma with 0.05 mL Actin reagent for 120 seconds followed by 0.05 mL CaCl2 (0.02M). The thrombin time (TT) is measured by adding 0.05 mL saline and 0.05 mL thrombin (10 NIH units/mL) to 0.05 mL test plasma. The compounds of Formula I are added to human or animal plasma over a wide range of concentrations to determine prolongation effects on the APTT, PT, and TT assays. Linear extrapolations are performed to estimate the concentrations required to double the clotting time for each assay.

[2] = tested on: Human plasma; test: Human plasma anticoagulation, activated partial thromboplastin time (APTT); settings: concentration required to double the APTT, linear extrapolation
Experimental: as §1, §2

[3] = tested on: Human plasma; test: Human plasma anticoagulation, prothrombin time (PT); settings: concentration required to double the PT, linear extrapolation
Experimental: as §1, §2

Molecule: Cl.O=C(O)CNC(CC1CCCCC1)C(=O)N1CCCC1C(=O)NCCC1CCNCC1 [Example 54, HO2 CCH2 -D-Cha-Pro-4-NHCH2 CH2 -piperidine.HCl]
- Human Plasma Anticoagulation 2× Clotting time (ng/mL) TT [1]: 140 ng/mL
- Human Plasma Anticoagulation 2× Clotting time (ng/mL) APTT [2]: 3,300 ng/mL
- Human Plasma Anticoagulation 2× Clotting time (ng/mL) PT [3]: 2,200 ng/mL

Molecule: N=C(N)c1ccc(CNC(=O)[C@@H]2C[C@@H]3CCCC[C@@H]3N2C(=O)[C@H]2C[C@H]3CCCC[C@H]3CN2)cc1 (relative stereo) [Example 43, D-3-Piq-cis-Ohi-p-NHCH2 C6 H4 C(NH)NH2.2HCl]
- Human Plasma Anticoagulation 2× Clotting time (ng/mL) TT [1]: 280 ng/mL
- Human Plasma Anticoagulation 2× Clotting time (ng/mL) APTT [2]: 1,100 ng/mL
- Human Plasma Anticoagulation 2× Clotting time (ng/mL) PT [3]: 930 ng/mL

Molecule: N=C(N)c1cccc(CNC(=O)[C@@H]2CCCN2C(=O)[C@@H]2NCC[C@@H]3CCCC[C@@H]32)c1 [Example 25, D-1-Piq-Pro-m-NHCH2 --C6 H4 C(=NH)NH2.HCl]
- Human Plasma Anticoagulation 2× Clotting time (ng/mL) TT [1]: 1,430 ng/mL
- Human Plasma Anticoagulation 2× Clotting time (ng/mL) APTT [2]: 34,600 ng/mL
- Human Plasma Anticoagulation 2× Clotting time (ng/mL) PT [3]: 40,400 ng/mL

Molecule: CCOC(=O)N[C@H](Cc1ccccc1)C(=O)N1CCC[C@H]1C(=O)NCCCCN=C(N)N.Cl [Example 3, EtOCO-D-Phe-Pro-Agm.HCl]
- Human Plasma Anticoagulation 2× Clotting time (ng/mL) TT [1]: 590 ng/mL

Molecule: NCc1ccc(CNC(=O)[C@@H]2CCCN2C(=O)[C@H](N)Cc2ccccc2)cc1 [Example 10, D-Phe-Pro-p-NHCH2 C6 H4 CH2 NH2.HCl]
- Human Plasma Anticoagulation 2× Clotting time (ng/mL) TT [1]: 420 ng/mL

Molecule: N=C(N)NCCCCCNC(=O)[C@@H]1CCCN1C(=O)[C@H](N)Cc1ccccc1 [Example 6, D-Phe-Pro-NH(CH2)5 NHC(NH)NH2.HCl]
- Human Plasma Anticoagulation 2× Clotting time (ng/mL) TT [1]: 390 ng/mL

Molecule: Cl.Nc1ccc(CCNC(=O)[C@@H]2CCCN2C(=O)[C@H](N)Cc2ccccc2)cc1 [Example 14, D-Phe-Pro-p-NHCH2 CH2 C6 H4 NH2.HCl]
- Human Plasma Anticoagulation 2× Clotting time (ng/mL) TT [1]: 21,000 ng/mL

Molecule: Nc1ccc(CCNC(=O)[C@@H]2CCCN2C(=O)[C@@H](CC2CCCCC2)NCC(=O)O)cc1 [Example 63, HO2 CCH2 -D-Cha-Pro-4-NHCH2 CH2 C6 H4 NH2.HCl]
- Human Plasma Anticoagulation 2× Clotting time (ng/mL) TT [1]: 680 ng/mL

Molecule: Nc1ccc(CNC(=O)[C@@H]2CCCN2C(=O)[C@H](N)Cc2ccccc2)cc1 [Example 13, D-Phe-Pro-p-NHCH2 C6 H4 NH2.HCl]
- Human Plasma Anticoagulation 2× Clotting time (ng/mL) TT [1]: 660 ng/mL

Molecule: CCS(=O)(=O)N[C@H](CC1CCCCC1)C(=O)N1CCC[C@H]1C(=O)NCCCCN=C(N)N.Cl [Example 2, EtSO2 -D-Cha-Pro-Agm.HCl]
- Human Plasma Anticoagulation 2× Clotting time (ng/mL) TT [1]: 170 ng/mL

Molecule: Cl.N=C(N)c1cc(CNC(=O)[C@@H]2CCCN2C(=O)[C@@H](CC2CCCCC2)NCC(=O)O)cs1 [Example 65, HO2 CCH2 -D-Cha-Pro-4-NHCH2 -2-amidinothiophene.HCl]
- Human Plasma Anticoagulation 2× Clotting time (ng/mL) TT [1]: 1 ng/mL
- Human Plasma Anticoagulation 2× Clotting time (ng/mL) APTT [2]: 48 ng/mL

Molecule: Cl.NCc1cccc(CNC(=O)[C@@H]2CCCN2C(=O)[C@H](N)Cc2ccccc2)c1 [Example 11, D-Phe-Pro-m-NHCH2 C6 H4 CH2 NH2.HCl]
- Human Plasma Anticoagulation 2× Clotting time (ng/mL) TT [1]: 8,800 ng/mL

Molecule: Cl.NC[C@H]1CC[C@H](CNC(=O)[C@@H]2CCCN2C(=O)[C@H](N)Cc2ccccc2)CC1 (relative stereo) [Example 12, D-Phe-Pro-NHCH2 -trans-4-(aminomethyl)cyclohexane.HCl]
- Human Plasma Anticoagulation 2× Clotting time (ng/mL) TT [1]: 1,700 ng/mL

Molecule: D-Phe-Pro-p-NHCH2 C6 H4 C(NH)NH2.HCl [Example 15]
- Human Plasma Anticoagulation 2× Clotting time (ng/mL) TT [1]: 9 ng/mL
- Human Plasma Anticoagulation 2× Clotting time (ng/mL) APTT [2]: 89 ng/mL

Molecule: N=C(N)NCCCCCCNC(=O)[C@@H]1CCCN1C(=O)[C@H](N)Cc1ccccc1 [Example 5, D-Phe-Pro-NH(CH2)6 NHC(NH)NH2.HCl]
- Human Plasma Anticoagulation 2× Clotting time (ng/mL) TT [1]: 30,000 ng/mL

Molecule: N=C(N)NCCCNC(=O)[C@@H]1CCCN1C(=O)[C@H](N)Cc1ccccc1 [Example 7, D-Phe-Pro-NH(CH2)3 NHC(NH)NH2.HCl]
- Human Plasma Anticoagulation 2× Clotting time (ng/mL) TT [1]: 490 ng/mL
